This is an account of results in patent publication US10759781B2, “Substituted guanidine derivatives” (UBE INDUSTRIES, LTD., priority 2015, dated 2020).

Each structure is given as a SMILES string. Counter-ions that a name gives are not always drawn.

This assay concerns the target T1, Human VAP-1 enzyme (Homo sapiens, UniProt Q16853).
T1 construct: purchased R&D Systems, Inc
T1 sequence (Q16853 1-763): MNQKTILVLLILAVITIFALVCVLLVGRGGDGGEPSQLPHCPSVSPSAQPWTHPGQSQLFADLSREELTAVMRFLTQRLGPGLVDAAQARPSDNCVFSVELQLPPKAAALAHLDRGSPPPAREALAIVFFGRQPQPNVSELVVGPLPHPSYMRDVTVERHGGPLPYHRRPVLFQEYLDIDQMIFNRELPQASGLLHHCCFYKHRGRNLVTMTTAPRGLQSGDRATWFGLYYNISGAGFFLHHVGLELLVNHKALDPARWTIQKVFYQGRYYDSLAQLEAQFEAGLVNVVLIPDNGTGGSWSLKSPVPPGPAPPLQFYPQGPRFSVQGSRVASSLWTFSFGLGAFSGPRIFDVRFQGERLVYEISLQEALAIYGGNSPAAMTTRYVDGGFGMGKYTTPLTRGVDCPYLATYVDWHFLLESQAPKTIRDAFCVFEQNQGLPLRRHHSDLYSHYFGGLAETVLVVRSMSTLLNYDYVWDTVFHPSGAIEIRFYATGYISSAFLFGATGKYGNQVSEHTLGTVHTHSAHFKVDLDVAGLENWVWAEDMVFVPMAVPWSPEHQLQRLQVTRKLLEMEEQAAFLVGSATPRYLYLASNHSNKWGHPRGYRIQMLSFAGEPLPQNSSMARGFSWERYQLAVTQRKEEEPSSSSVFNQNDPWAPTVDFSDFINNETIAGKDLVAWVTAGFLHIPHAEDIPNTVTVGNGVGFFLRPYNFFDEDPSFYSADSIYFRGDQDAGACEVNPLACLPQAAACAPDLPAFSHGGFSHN
The assay is described as follows: Human VAP-1 enzyme inhibition test. In kind it is biochemical. Particulars: 1 h; compound 30 nM; 14C-benzylamine 100 μM; read-out: inhibition ratio (human VAP-1 enzyme). The protocol: Human VAP-1 enzyme inhibition test
This test was conducted by modifying the method of P. H. Yu et al. (Diabetologia 40 1243 (1997)). Human VAP-1 enzyme (R&D Systems, Inc.) was pre-incubated in a 96-well plate with the compound dissolved in dimethylsulfoxide at room temperature for 20 minutes. Next, in a solution to the final volume of 200 μL, the enzyme reaction solution was incubated with ^14C-benzylamine (final concentration 100 μM) at 37° C. for 1 hour. The reaction was terminated by the addition of 100 μL of 2 M citric acid solution to the reaction solution. The oxidative product was extracted using a toluene/ethyl acetate mixture and the radioactivity was measured with a liquid scintillation counter. The inhibition ratio of the compound was calculated using the following equation. Inhibition ratio={1−[VAP-1 enzyme activity after treatment with the compound]/[VAP-1 enzyme activity in the presence of dimethylsulfoxide alone without the compound]}×100

Regarding `N=C(N)NC(=O)OCc1cccc(-c2cnc(N3CC(=NOCC(F)F)C3)nc2)c1F` [Example 6, 3-(2-{3-[(2,2-Difluoroethoxy)imino]azetidin-1-yl}pyrimidin-5-yl)-2-fluorobenzyl carbamimidoylcarbamate], the inhibition at 0.03 µM is no less than 50%.

`N=C(N)NC(=O)OCc1cccc(-c2cnc(N3CC(=NOCC(F)(F)F)C3)nc2)c1F` [Example 7, 2-Fluoro-3-(2-{3-[(2,2,2-trifluoroethoxy)imino]azetidin-1-yl}pyrimidin-5-yl)benzyl carbamimidoylcarbamate]: the inhibition at 0.03 µM was no less than 50%.

In the case of `N=C(N)NC(=O)OCc1cccc(-c2cnc(N3CC(=NOCCCF)C3)nc2)c1F` [Example 8, 2-Fluoro-3-(2-{3-[(3-fluoropropoxy)imino]azetidin-1-yl}pyrimidin-5-yl)benzyl carbamimidoylcarbamate], the inhibition at 0.03 µM is no less than 50%.

For the molecule `CC(=O)OCCON=C1CN(c2ncc(-c3cccc(COC(=O)NC(=N)N)c3F)cn2)C1` [Example 25, 2-[({1-[5-(3-{[(Carbamimidoylcarbamoyl)oxy]methyl}-2-fluorophenyl)pyrimidin-2-yl]azetidin-3-ylidene}amino)oxy]ethyl acetate], the inhibition at 0.03 µM is no less than 50%.

In the case of `CON=C1CN(c2ncc(-c3cccc(COC(=O)NC(=N)N)c3F)cc2C#N)C1` [Example 43, 3-{5-Cyano-6-[3-(methoxyimino)azetidin-1-yl]pyridin-3-yl}-2-fluorobenzyl carbamimidoylcarbamate], the inhibition at 0.03 µM was no less than 50%.

On to `CON=C1CN(c2ncc(-c3cccc(COC(=O)NC(=N)N)c3F)cc2Cl)C1` [Example 44, 3-{5-Chloro-6-[3-(methoxyimino)azetidin-1-yl]pyridin-3-yl}-2-fluorobenzyl carbamimidoylcarbamate], for which the inhibition at 0.03 µM was no less than 50%.

With `CON=C1CN(c2ncc(-c3cccc(COC(=O)NC(=N)N)c3F)cc2C(F)F)C1` [Example 45, 3-{5-(Difluoromethyl)-6-[3-(methoxyimino)azetidin-1-yl]pyridin-3-yl}-2-fluorobenzyl carbamimidoylcarbamate], the inhibition at 0.03 µM is no less than 50%.

`CON=C1CN(c2ncc(-c3cccc(COC(=O)NC(=N)N)c3F)cc2C2CC2)C1` [Example 46, 3-{5-Cyclopropyl-6-[3-(methoxyimino)azetidin-1-yl]pyridin-3-yl}-2-fluorobenzyl carbamimidoylcarbamate]: the inhibition at 0.03 µM is no less than 50%.

For the molecule `CCc1cc(-c2cccc(COC(=O)NC(=N)N)c2F)cnc1N1CC(=NOC)C1` [Example 47, 3-{5-Ethyl-6-[3-(methoxyimino)azetidin-1-yl]pyridin-3-yl}-2-fluorobenzyl carbamimidoylcarbamate], the inhibition at 0.03 µM was no less than 50%.

`COCc1cc(-c2cccc(COC(=O)NC(=N)N)c2F)cnc1N1CC(=NOC)C1` [Example 49, 2-Fluoro-3-{6-[3-(methoxyimino)azetidin-1-yl]-5-(methoxymethyl)pyridin-3-yl}benzyl carbamimidoylcarbamate]: the inhibition at 0.03 µM was no less than 50%.

For the molecule `CON=C1CN(c2ncc(-c3cccc(COC(=O)NC(=N)N)c3F)cc2OC)C1` [Example 50, 2-Fluoro-3-{5-methoxy-6-[3-(methoxyimino)azetidin-1-yl]pyridin-3-yl}benzyl carbamimidoylcarbamate], the inhibition at 0.03 µM was no less than 50%.

With `N=C(N)NC(=O)OCc1cccc(-c2cnc(N3CC(=NOCCO)C3)nc2)c1F` [Example 71, 2-Fluoro-3-(2-{3-[(2-hydroxyethoxy)imino]azetidin-1-yl}pyrimidin-5-yl)benzyl carbamimidoylcarbamate hydrochloride], the inhibition at 0.03 µM was no less than 50%.

As for `N=C(N)NC(=O)OCc1cccc(-c2cnc(N3CC(=NOCCCCO)C3)nc2)c1F` [Example 73, 2-Fluoro-3-(2-{3-[(4-hydroxybutoxy)imino]azetidin-1-yl}pyrimidin-5-yl)benzyl carbamimidoylcarbamate], the inhibition at 0.03 µM was no less than 50%.

With `N=C(N)NC(=O)OCc1cccc(-c2cnc(N3CC(=NOCCOCCO)C3)nc2)c1F` [Example 74, 2-Fluoro-3-[2-(3-{[2-(2-hydroxyethoxy)ethoxy]imino}azetidin-1-yl)pyrimidin-5-yl]benzyl carbamimidoylcarbamate], the inhibition at 0.03 µM was no less than 50%.

Take `N=C(N)NC(=O)OCc1cccc(-c2cnc(N3CC(=NOCC(CO)CF)C3)nc2)c1F` (stereo not drawn) [Example 75, 2-Fluoro-3-[2-(3-{[3-fluoro-2-(hydroxymethyl)propoxy]imino}azetidin-1-yl)pyrimidin-5-yl]benzyl carbamimidoylcarbamate]: the inhibition at 0.03 µM is no less than 50%.

With `COC(CO)CCON=C1CN(c2ncc(-c3cccc(COC(=O)NC(=N)N)c3F)cn2)C1` (stereo not drawn) [Example 76, 2-Fluoro-3-(2-{3-[(4-hydroxy-3-methoxybutoxy)imino]azetidin-1-yl}pyrimidin-5-yl)benzyl carbamimidoylcarbamate], the inhibition at 0.03 µM is no less than 50%.

Consider `CC(=O)OCC(CO)CON=C1CN(c2ncc(-c3cccc(COC(=O)NC(=N)N)c3F)cn2)C1` (stereo not drawn) [Example 77, 3-[({1-[5-(3-{[(Carbamimidoylcarbamoyl)oxy]methyl}-2-fluorophenyl)pyrimidin-2-yl]azetidin-3-ylidene}amino)oxy]-2-(hydroxymethyl)propyl acetate], for which the inhibition at 0.03 µM is no less than 50%.

Take `N=C(N)NC(=O)OCc1cccc(-c2cnc(N3CC(=NOCC(CO)CO)C3)nc2)c1F` [Example 92, 2-Fluoro-3-[2-(3-{[3-hydroxy-2-(hydroxymethyl)propoxy]imino}azetidin-1-yl)pyrimidin-5-yl]benzyl carbamimidoylcarbamate]: the inhibition at 0.03 µM was no less than 50%.

`N=C(N)NC(=O)OCc1cccc(-c2cnc(N3CC(=NOCC(O)CO)C3)nc2)c1F` (stereo not drawn) [Example 93, 3-(2-{3-[(2,3-Dihydroxypropoxy)imino]azetidin-1-yl}pyrimidin-5-yl)-2-fluorobenzyl carbamimidoylcarbamate]: the inhibition at 0.03 µM was no less than 50%.

For `COCC(CO)CON=C1CN(c2ncc(-c3cccc(COC(=O)NC(=N)N)c3F)cn2)C1` (stereo not drawn) [Example 100, 2-Fluoro-3-[2-(3-{[3-hydroxy-2-(methoxymethyl)propoxy]imino}azetidin-1-yl)pyrimidin-5-yl]benzyl carbamimidoylcarbamate], the inhibition at 0.03 µM is no less than 50%.

With `N=C(N)NC(=O)OCc1cccc(-c2cnc(N3CC(=NOCC(F)CO)C3)c(F)c2)c1F` (stereo not drawn) [Example 103, 2-Fluoro-3-(5-fluoro-6-{3-[(2-fluoro-3-hydroxypropoxy)imino]azetidin-1-yl}pyridin-3-yl)benzyl carbamimidoylcarbamate], the inhibition at 0.03 µM was no less than 50%.

As for `COCC(O)CON=C1CN(c2ncc(-c3cccc(COC(=O)NC(=N)N)c3F)cn2)C1` (stereo not drawn) [Example 104, 2-Fluoro-3-(2-{3-[(2-hydroxy-3-methoxypropoxy)imino]azetidin-1-yl}pyrimidin-5-yl)benzyl carbamimidoylcarbamate], the inhibition at 0.03 µM is no less than 50%.

For the molecule `N=C(N)NC(=O)OCc1cccc(-c2cnc(N3CC(=NO)C3)c(F)c2)c1F` [Example 107, 2-Fluoro-3-{5-fluoro-6-[3-(hydroxyimino)azetidin-1-yl]pyridin-3-yl}benzyl carbamimidoylcarbamate], the inhibition at 0.03 µM was no less than 50%.

For `CC(C)(C)OC(=O)CON=C1CN(c2ncc(-c3cccc(COC(=O)NC(=N)N)c3F)cn2)C1` [Example 108, tert-Butyl 2-[({1-[5-(3-{[(carbamimidoylcarbamoyl)oxy]methyl}-2-fluorophenyl)pyrimidin-2-yl]azetidin-3-ylidene}amino)oxy]acetate], the inhibition at 0.03 µM was no less than 50%.

Consider `CNC(=O)CON=C1CN(c2ncc(-c3cccc(COC(=O)NC(=N)N)c3F)cn2)C1` [Example 111, 2-Fluoro-3-[2-(3-{[2-(methylamino)-2-oxoethoxy]imino}azetidin-1-yl)pyrimidin-5-yl]benzyl carbamimidoylcarbamate], for which the inhibition at 0.03 µM was no less than 50%.

On to `N=C(N)NC(=O)OCc1cccc(-c2cnc(N3CC(=NOCCC(N)=O)C3)nc2)c1F` [Example 112, 3-(2-{3-[(3-Amino-3-oxopropoxy)imino]azetidin-1-yl}pyrimidin-5-yl)-2-fluorobenzyl carbamimidoylcarbamate], for which the inhibition at 0.03 µM was no less than 50%.

Consider `CNC(=O)CCON=C1CN(c2ncc(-c3cccc(COC(=O)NC(=N)N)c3F)cn2)C1` [Example 113, 2-Fluoro-3-[2-(3-{[3-(methylamino)-3-oxopropoxy]imino}azetidin-1-yl)pyrimidin-5-yl]benzyl carbamimidoylcarbamate], for which the inhibition at 0.03 µM was no less than 50%.
